Values joined by “and” are separate entries in the source; they are usually repeats but may differ in a detail not shown here. Equal values may be shown once. Read-outs that look alike come from different tables or passages of the source.
Experiments:
Assay type in all cases: biochemical
human CSNK1A1 = human CSNK1A1 (Homo sapiens (Human), UniProt P48729); test: CSNK1A1 Assay 1 (ADP-Glo, 1 μM ATP); details: read-out: CSNK1A1 Assay 1 IC50 [mol/l] (median)
Method: CSNK1A1-inhibitory activity of compounds of the present invention in presence of 1 μM adenosine-tri-phosphate (ATP) was quantified employing the CSNK1A1 assay as described in the following paragraphs. In essence, the enzyme activity is measured by quantification of the adenosine-di-phosphate (ADP), which is generated as a co-product of the enzyme reaction, via the “ADP-Glo™ Kinase Assay” kit from the company Promega. This detection system works as follows: In a first step the ATP not consumed in the kinase reaction is quantitatively converted to cAMP employing an adenylate cyclase (“ADP-Glo-reagent”), then the adenylate cyclase is stopped and the ADP generated in the kinase reaction converted to ATP which generates in a luciferase-based reaction a glow-luminescence signal (“Kinase Detection Reagent”). Recombinant fusion protein of N-terminal Glutathion-S-Transferase (GST) and full-length human CSNK1A1, expressed by baculovirus infected insect cells and purified via Glutathion affinity chromatography, was purchased from Life Technologies (product no. PV4174) and used as enzyme. As substrate for the kinase reaction the biotinylated peptide Btn-Ahx-[…] (C-terminus in amide form) was used which can be purchased e.g. from the company Biosyntan (Berlin-Buch, Germany).
For the assay 50 nl of a 100 fold concentrated solution of the test compound in DMSO was pipetted into a white 1536-well microtiter plate (Greiner Bio-One, Frickenhausen, Germany), 2 μL of a solution of CSNK1A1 in aqueous assay buffer [50 mM HEPES pH 7.5, 10% (v/v) glycerol, 10 mM MgCl2, 50 mM NaCl, 1 mM dithiothreitol, 0.01% (w/v) bovine serum albumin, 0.01% (v/v) Triton X-100] were added and the mixture was incubated for 15 min at 22° C. to allow pre-binding of the test compounds to the enzyme before the start of the kinase reaction. […] The concentration of CSNK1A1 was adjusted depending of the activity of the enzyme lot and was chosen appropriate to have the assay in the linear range, a typical concentration is 0.15 ng/μL. The reaction was stopped by the addition of 2.5 μL of “ADP-Glo-reagent” (1:1.5 fold diluted with water) and the resulting mixture was incubated at 22° C. for 1 h to convert the ATP not consumed in the kinase reaction completely […]. Subsequently 2.5 μL of the “kinase detection reagent” (1.2 fold more concentrated than recommended by the producer) were added, the resulting mixture was incubated at 22° C. for 1 h and then the luminescence measured with a suitable measurement instrument (e.g. Viewlux™ from Perkin-Elmer). The amount of emitted light was taken as a measure for the amount of ADP generated and thereby for the activity of the CSNK1A1.

[1] = target: wild-type Epidermal Growth Factor Receptor (EGFR) (Homo sapiens (Human), UniProt P00533); test: WT-EGFR Kinase Assay (TR-FRET, 2 mM ATP)
Chain of wild-type Epidermal Growth Factor Receptor (EGFR) (P00533 669-1210): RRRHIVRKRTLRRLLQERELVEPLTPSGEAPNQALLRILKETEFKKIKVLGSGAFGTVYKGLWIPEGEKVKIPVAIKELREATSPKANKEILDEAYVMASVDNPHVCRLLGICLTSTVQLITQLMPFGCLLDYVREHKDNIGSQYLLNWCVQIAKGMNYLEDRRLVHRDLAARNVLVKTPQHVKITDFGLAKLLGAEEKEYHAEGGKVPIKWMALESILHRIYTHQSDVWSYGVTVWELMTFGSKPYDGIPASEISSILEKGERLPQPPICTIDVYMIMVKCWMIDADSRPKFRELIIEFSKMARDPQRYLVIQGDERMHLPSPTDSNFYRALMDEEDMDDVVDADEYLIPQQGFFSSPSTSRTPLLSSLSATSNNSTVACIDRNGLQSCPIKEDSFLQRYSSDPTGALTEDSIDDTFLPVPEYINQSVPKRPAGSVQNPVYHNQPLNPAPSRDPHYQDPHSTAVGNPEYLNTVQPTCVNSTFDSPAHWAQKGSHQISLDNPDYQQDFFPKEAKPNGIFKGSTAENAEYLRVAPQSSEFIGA

human CSNK1D = human CSNK1D (Homo sapiens (Human), UniProt P48730); test: CSNK1D Assay (ADP-Glo, 1 μM ATP); details: read-out: CSNK1D IC50 [mol/l] (median)
Chain of human CSNK1D (P48730 whole entry): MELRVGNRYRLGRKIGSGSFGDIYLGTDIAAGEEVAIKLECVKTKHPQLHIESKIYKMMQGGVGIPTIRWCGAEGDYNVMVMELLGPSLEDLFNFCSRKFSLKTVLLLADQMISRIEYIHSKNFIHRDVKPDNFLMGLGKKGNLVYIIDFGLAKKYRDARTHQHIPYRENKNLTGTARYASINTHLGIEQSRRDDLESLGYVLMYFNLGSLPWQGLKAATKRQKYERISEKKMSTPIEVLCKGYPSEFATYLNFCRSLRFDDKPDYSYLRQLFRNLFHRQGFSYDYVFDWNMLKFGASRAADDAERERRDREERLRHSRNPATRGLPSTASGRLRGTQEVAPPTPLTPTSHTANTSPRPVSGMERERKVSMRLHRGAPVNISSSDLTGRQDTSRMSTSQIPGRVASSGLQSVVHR
Procedure, shortened: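 Activity is read as ADP produced, by ADP-Glo luminescence after 1 h steps at 22 °C. The reaction uses 1 μM ATP, a biotinylated peptide and insect-cell-expressed GST–CSNK1D (about 0.5 ng/μL) in pH 7.5 HEPES buffer, with 15 min compound–enzyme preincubation.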

[2] = substrate Btn-Ahx-SGSEGDSESGEEEG
[3] = read-out: EGFR Wildtyp- 2 mM ATP IC50 [mol/l] (median)
[4] = EGFR Wildtyp- 2 mM ATP IC50 [mol/l] (median)

Chain of human CSNK1A1 (P48729 whole entry): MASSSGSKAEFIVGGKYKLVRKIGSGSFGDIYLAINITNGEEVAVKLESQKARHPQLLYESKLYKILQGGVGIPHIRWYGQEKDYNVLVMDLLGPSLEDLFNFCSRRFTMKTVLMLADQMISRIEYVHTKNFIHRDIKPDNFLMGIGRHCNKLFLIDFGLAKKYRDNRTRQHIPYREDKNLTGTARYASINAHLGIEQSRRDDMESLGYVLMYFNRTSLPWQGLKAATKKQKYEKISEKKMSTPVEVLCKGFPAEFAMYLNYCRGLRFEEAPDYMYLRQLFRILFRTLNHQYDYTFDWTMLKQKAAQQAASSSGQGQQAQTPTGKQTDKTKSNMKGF

| SMILES | IC50 (human CSNK1A1; [2]) | IC50 [1, 3] | IC50 (human CSNK1D) | IC50 (human CSNK1A1; substrate Btn-Ahx-[…]) | IC50 [1, 4] |
| --- | --- | --- | --- | --- | --- |
| CN1CCc2[nH]c(-c3ccnc(NC(=O)Cc4ccc(F)cc4)c3)c(Nc3ccccc3)c2C1=O [Example 1, N-[4-(3-anilino-5-methyl-4-oxo-4,5,6,7-tetrahydro-1H-pyrrolo[3,2-c]pyridin-2-yl)pyridin-2-yl]-2-(4-fluorophenyl)acetamide] | 2.54 nM | 1200 nM | 5.64 nM | – | – |
| C[C@@H](C(=O)Nc1cc(-c2[nH]c3c(c2Nc2ccccc2)C(=O)N(C)CC3)ccn1)c1ccc(F)cc1 (single isomer, unassigned) [Example 6] | – | – | 49.6 nM | 33.3 nM | 16.1 µM and 15.6 µM and 18.2 µM and > 20 µM (2×) and 15.9 µM and 17.1 µM |
| CC(C(=O)Nc1cc(-c2[nH]c3c(c2Nc2ccccc2)C(=O)N(C)CC3)ccn1)c1ccc(F)cc1 (stereo not drawn) [Example 4, N-[4-(3-anilino-5-methyl-4-oxo-4,5,6,7-tetrahydro-1H-pyrrolo[3,2-c]pyridin-2-yl)pyridin-2-yl]-2-(4-fluorophenyl)propanamide] | 11.2 nM | > 20000 nM | 15.1 nM | – | 12600 nM and 11200 nM |
| C[C@H](C(=O)Nc1cc(-c2[nH]c3c(c2Nc2ccccc2)C(=O)N(C)CC3)ccn1)c1ccc(F)cc1 (single isomer, unassigned) [Example 5] | – | – | 12.1 nM | 3.62 nM | – |

— US12227501B2, “3-amino-2-[2-(acylamino)pyridin-4-yl]-1,5,6,7-tetrahydro-4h-pyrrolo[3,2-c]pyridin-4-one as CSNK1 inhibitors” (Bayer Aktiengesellschaft, priority 2019, dated 2025)
